According to PMC3904662 (Nature, 2013):
Where two headings read alike, the source gives them in different places.

Legend:
wild-type LeuT [1] = biological target: T1, wild-type LeuT (Aquifex aeolicus, UniProt O67854)
Δ13 LeuBAT = Δ13 LeuBAT (Aquifex aeolicus, UniProt O67854, A261V/E290S/G24D/G408T/I106S/I262L/I359G/N21Y/P362G/S256G/T254S/T409G/Y265F); experiment: biochemical
wild-type LeuT [2] = biological target: T1, wild-type LeuT; experiment: biochemical; conditions: saturation binding of 3H-mazindol
[3] = biological target: hSERT (human serotonin transporter); conditions: cited from earlier work

| SMILES | suppression of sertraline binding to wild-type LeuT (wild-type LeuT [1]; 3 µM 3[H]-sertraline with 5 mM Ala) | Kd (Δ13 LeuBAT) [nM] | Kd (wild-type LeuT [2]) [µM] | Kd [3] [nM] | Kd (wild-type LeuT [1]; saturation binding of 3H-labeled drug, n=3, ±s.e.m) |
| --- | --- | --- | --- | --- | --- |
| C[C@H](N)C(=O)O [alanine] | could not suppress the binding of sertraline |  |  |  |  |
| OC1(c2ccc(Cl)cc2)c2ccccc2C2=NCCN21 (stereo not drawn) [mazindol] |  | 112 ± 18 | 22.3 ± 5.4 | 103 ± 4.7 |  |
| Fc1ccc([C@@H]2CCNC[C@H]2COc2ccc3c(c2)OCO3)cc1 [paroxetine] |  | 431 ± 24 |  |  | could not be fit to an isotherm because of low affinity |
